The text below walks through data of patent publication US20070225330A1, “USE OF CERTAIN PHENYL-NAPHTHYL COMPOUNDS THAT DO NOT HAVE SIGNIFICANT AFFINITY TO ER ALPHA OR ER BETA FOR PROTECTION OF NEURONS AND OLIGODENDROCYTES IN THE TREATMENT OF MULTIPLE SCLEROSIS” (AVENTIS PHARMACEUTICALS INC., priority 2004, published 2007).

The structures appear in SMILES notation.

In one assay the target is T1, ER α (Homo sapiens, UniProt P03372).
T1 sequence (P03372 1-595): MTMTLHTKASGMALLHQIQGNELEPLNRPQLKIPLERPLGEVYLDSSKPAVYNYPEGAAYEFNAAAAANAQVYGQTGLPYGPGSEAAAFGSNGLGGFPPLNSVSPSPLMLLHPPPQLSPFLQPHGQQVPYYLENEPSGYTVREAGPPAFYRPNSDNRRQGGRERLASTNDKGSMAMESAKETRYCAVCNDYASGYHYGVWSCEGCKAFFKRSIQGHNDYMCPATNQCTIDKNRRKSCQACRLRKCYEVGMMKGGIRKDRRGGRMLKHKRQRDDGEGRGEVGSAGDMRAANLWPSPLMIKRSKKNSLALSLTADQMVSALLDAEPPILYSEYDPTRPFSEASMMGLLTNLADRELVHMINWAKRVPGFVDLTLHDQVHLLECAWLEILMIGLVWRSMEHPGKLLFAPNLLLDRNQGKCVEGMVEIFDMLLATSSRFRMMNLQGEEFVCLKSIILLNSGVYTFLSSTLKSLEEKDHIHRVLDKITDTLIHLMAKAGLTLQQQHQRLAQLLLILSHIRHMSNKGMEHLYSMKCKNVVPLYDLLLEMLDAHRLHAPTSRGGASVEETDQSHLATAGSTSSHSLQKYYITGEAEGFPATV
As to the kind of experiment: Affinity for ER receptors (α). Format: binding. To be noted: unit not given.

Assay [1] concerns Primary rat oligodendrocyte progenitor cells. As to the kind of experiment: Oligodendrocyte toxicity assay (LDH release, protection against toxin-induced toxicity). The assay is classed as cell-based. To be noted: compound pretreatment 1 hour, LDH after 24 hours; for Oligodendrocyte progenitor protection against Camptothecin: Camptothecin 10 μM; for Oligodendrocyte progenitor protection against SIN-1: SIN-1 10 mM. Here is the method:
Oligodendrocyte Toxicity Assay
Primary rat oligodendrocyte progenitor cells were obtained from the cerebra of 2-3 day old postnatal rats (Sprague Dawley). The meninges were removed and tissue was mechanically dissociated. Cells were plated on T75 flasks and fed with DMEM+10% FBS.
Enriched OLPs were collected by mechanical separation from the astrocytic monolayer and were expanded in serum free media (SFM) supplemented with the mitogens, PDGF-AA (10 ng/ml) and FGF-2 (10 ng/ml).
To generate mature oligodendrocytes, progenitor cells were switched to SFM supplemented with IGF-1 (10 ng/ml) 24 hours after plating and cells were grown under these conditions for 7 days prior to experimental assays.
Cells were plated in 96-well plates, 10,000 per well. Medium was changed to fresh medium and cells were pretreated with compounds for 1 hour. Toxins were added to give the following final concentrations:
After 24 hours, medium was removed and assayed for LDH activity using the Promega cytotox 96 kit (catalog #G1780). Results were calculated as percent protection against toxin-induced toxicity.

Another assay has as its target ER β (Homo sapiens, UniProt Q92731). As to the kind of experiment: Affinity for ER receptors (β). Format: binding. To be noted: unit not given.

Chain of ER β (Q92731 whole entry): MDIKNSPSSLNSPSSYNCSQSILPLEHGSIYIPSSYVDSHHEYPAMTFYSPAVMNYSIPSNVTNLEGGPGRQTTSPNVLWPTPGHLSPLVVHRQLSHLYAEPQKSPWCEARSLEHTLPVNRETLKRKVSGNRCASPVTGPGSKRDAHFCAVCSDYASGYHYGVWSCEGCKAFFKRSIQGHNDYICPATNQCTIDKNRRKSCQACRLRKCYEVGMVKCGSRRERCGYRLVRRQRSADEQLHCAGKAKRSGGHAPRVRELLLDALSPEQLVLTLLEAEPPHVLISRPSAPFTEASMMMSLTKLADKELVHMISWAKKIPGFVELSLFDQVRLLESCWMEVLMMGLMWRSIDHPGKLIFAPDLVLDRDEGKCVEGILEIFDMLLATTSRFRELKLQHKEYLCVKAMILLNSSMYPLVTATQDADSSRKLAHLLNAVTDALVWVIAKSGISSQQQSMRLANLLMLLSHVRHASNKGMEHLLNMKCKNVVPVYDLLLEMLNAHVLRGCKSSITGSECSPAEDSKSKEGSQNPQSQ

Turning to `Oc1ccc(-c2ccc3cc(O)ccc3c2Cl)cc1` [Compound 4, 5-chloro-6-(4-hydroxyphenyl)-2-naphthalenol], the “Affinity for ER receptors* α” value at ER α is 35.4. Moreover, in assay [1], the “Oligodendrocyte progenitor protection against Camptothecin” value is on record as “Effective” and the “Oligodendrocyte progenitor protection against SIN-1” value is recorded as “Effective”. Moreover, the “Affinity for ER receptors* β” value at ER β was found to be 3.

As for `Oc1ccc(-c2ccc3cc(O)ccc3c2)cc1` [Compound 7, 6-(4-Hydroxy-phenyl)-2-naphthalenol], the “Affinity for ER receptors* α” value on ER α was found to be 408. Further, in assay [1], the “Oligodendrocyte progenitor protection against Camptothecin” value was “Effective” and the “Oligodendrocyte progenitor protection against SIN-1” value was “Effective”. Also, on ER β, the “Affinity for ER receptors* β” value was determined as 14.7.

On to `COc1ccc(-c2sc3cc(O)ccc3c2Oc2ccc(OCCN3CCCCC3)cc2)cc1` [Compound 10, Arzoxifen], for which, in assay [1], the “Oligodendrocyte progenitor protection against Camptothecin” value is recorded as “Very effective” and the “Oligodendrocyte progenitor protection against SIN-1” value is on record as “Very effective”.

On to `C[C@@]12CCc3cc(O)ccc3[C@H]1CC[C@@]1(C)[C@H]2CC[C@@H]1O` [Compound 11, Estrogen], for which the “Affinity for ER receptors* α” value at ER α was 1.17. In assay [1], the “Oligodendrocyte progenitor protection against Camptothecin” value was “Effective” and the “Oligodendrocyte progenitor protection against SIN-1” value was “Effective”. For the same molecule, the “Affinity for ER receptors* β” value at ER β is 6.1.
